Measured values taken from publication PMC8581430, “Peptide ligands targeting FGF receptors promote recovery from dorsal root crush injury via AKT/mTOR signaling” (Theranostics, 2021).

Test system: FGFR (phosphorylated) in DRG explants
Assay: Western blot of phosphorylated FGFR in ex vivo DRG explants
Type: cell-based, Sprague-Dawley rat
Settings: CH02 20 μM + BGJ398 2 μM, 4 h, n = 3
Protocol: Figure 5 Role of FGFR signaling in response to the CH02 peptide on promoting nerve regeneration. (A) Western blot analysis of phosphorylated FGFR expression in C5-T1 DRGs subjected to dorsal root crush injury, followed by CH02 treatment (20 μM). DRGs were collected after 3 days. Glyceraldehyde-3-phosphate dehydrogenase (GAPDH) antibodies were used as the loading control. (B) Western blot analysis of phosphorylated FGFR expression in ex vivo cultured DRG explants of adult Sprague-Dawley rats in response to CH02 treatment at different induction times. […] (D-F) Quantification of p-FGFR expression levels in panels A, B, and C. n = 3 independent experiments. Relative protein expression levels were quantified after normalization to FGFR2 or FGFR1. […] (H) Quantification of axon growth in DRG explants (G) using Neurite-J software (n = 5 for each condition; *control vs. CH02; #control vs. BGJ398; **p < 0.01, ***p < 0.001, ****p < 0.0001, #p < 0.05, ##p < 0.01 by two-way ANOVA with Dunnett's test; mean ± SEM). […] Images of random neurons were acquired by fluorescence microscopy. […] (J) Quantification of the longest axon length of each neuron randomly selected from (I) using Image-Pro Plus 6.0 software (n = 100 for each condition; *p < 0.05, **p < 0.01, ****p < 0.0001 by one-way ANOVA with Dunnett's; ns, not significant; mean ± SD). […]

For `CCN1CCN(c2ccc(Nc3cc(N(C)C(=O)Nc4c(Cl)c(OC)cc(OC)c4Cl)ncn3)cc2)CC1` [BGJ398], the “effect of inhibitor on CH02-upregulated phosphorylated FGFR” value was “counteracted CH02 effects on upregulated phosphorylated FGFR levels”.
